“And” between values parts separate entries of the source, which are not always exact repeats. Equal entries are not always repeated.
What was measured:
[1] = Stability of AST-2660 in human plasma at −20° C. and −70° C. for one month (LC-MS/MS); format: in vitro ADME
Method: (§1) The detection method established in example 4 was used to detect the content of AST-2660 in the human plasma to be tested.
Matrix: the mixed normal human plasma containing anticoagulant (K2 EDTA) • a: the internal standard working solution: AST-2660-D8 was taken, added with methanol, and diluted to prepare a solution containing about 100 ng per 1 ml. • b: the solution to be tested (no internal standard compound was added to the solution to be tested at this time): it was obtained by taking a blood sample to be tested. • c: the standard working solution (no internal standard compound was added to the standard working solution at this time): an appropriate amount of AST-2660 was taken and accurately weighed, dissolved with methanol, and diluted to prepare a solution containing about 1.0 mg per 1 ml, which was used as the standard working stock solution. An appropriate amount of the standard working stock solution was taken, added with the matrix and diluted to prepare standard working solutions with different concentrations containing about 200 ng, 160 ng, 100 ng, 50 ng, 10 ng, 2.0 ng, 1.0 ng and 0.5 ng per 1 ml, respectively. (The solution was stored at −70° C.) • d: the quality control sample solution: an appropriate amount of AST-2660 was taken and accurately weighed, dissolved with methanol, and diluted to prepare a solution containing about 10 μg per 1 ml, which was used as the quality control working stock solution. An appropriate amount of the quality control working stock solution was taken, added with matrix to prepare quality control working solutions with different concentrations containing about 150 ng, 60 ng, 15 ng, 1.5 ng and 0.5 ng per 1 ml. (The solution was stored at −70° C.)
The solution to be tested, the standard working solution and the quality control sample solution were thawed at room temperature and mixed uniformly. 100 μl of the above solution was respectively taken, added with 20 μl of the internal standard and 500 μl of methanol, and vortexed for 3 minutes to mix uniformly, and then centrifuged for 10 minutes at 2143 rcf. 450 μl of the supernatant was taken and dried, and 150 μl of methanol was added for redissolution, and sonicated. Then the plates were centrifuged for 3 minutes at 4° C. It was obtained by taking […] of supernatant.
Liquid phase conditions: A SHARC 1, 3 μm, 2.1*50 mm or chromatograph column with equivalent performance was used; the mobile phase was a methanol solution comprising low content of ammonium acetate; the mobile phase B was acetonitrile; the gradient elution was performed according to the following table, column temperature: 20° C.; injection volume: 5 μl.
Mass spectrometric conditions: electrospray ion source with negative ion scanning mode; spray potential: −4500 V; ion source temperature: 500° C.; collision energy (CE): −22 eV; declustering potential (DP): −55V; entrance potential (EP): −10V; collision chamber exit potential (CXP): −16V; dwell time: 100 ms; high purity nitrogen was used for all gases; AST-2660 ions pairs: m/z 147.0→m/z 62.9; the internal standard AST-2660-D8 ion pairs: m/z 155.0→m/z 62.9.
The AST-2660 standard working solution, blank sample, zero concentration sample, sample solution to be tested and quality control sample solution with different concentrations after extraction were respectively taken and injected into LC-MS/MS for detection.
(§2) Calculation results: the relationship function y=f (x) of the ratio of the peak area of the AST-2660 to that of the internal standard was obtained from AST-2660 standard working solutions with different concentrations. The ratio of the peak area of the AST-2660 to that of the internal standard was determined from the solution to be tested after extraction, and substituted into the relationship function y=f (x) to calculate the concentration of the metabolite II in the solution to be tested.

[2] = Stability of treated (extracted) human plasma samples of AST-2660 at 4° C. (LC-MS/MS); format: physicochemical; conditions: stored for 54 hours at 4° C.
Method: as §1
Matrix: the mixed normal human plasma containing anticoagulant (K2 EDTA) • a: the internal standard working solution: AST-2660-D8 was taken, added with methanol, and diluted to prepare a solution containing about 100 ng per 1 ml. • b: the solution to be tested (no internal standard compound was added to the solution to be tested at this time): it was obtained by taking a blood sample to be tested. • c: the standard working solution (no internal standard compound was added to the standard working solution at this time): an appropriate amount of AST-2660 was taken and accurately weighed, dissolved with methanol, and diluted to prepare a solution containing about 1.0 mg per 1 ml, which was used as the standard working stock solution. […]
as §2

[3] = QC1 nominal 1.50 ng/ml, 28 days at −20° C.
[4] = QC1 nominal 1.50 ng/ml, 28 days at −70° C.
[5] = QC4 nominal 150 ng/ml, 28 days at −20° C.
[6] = QC4 nominal 150 ng/ml, 28 days at −70° C.

O=P([O-])(N1CC1)N1CC1.[Na+] [AST-2660]
change of AST-2660 content (in words) ([1]; 28 days of storage at −20° C.): reduced significantly | change of AST-2660 content (in words) ([1]; 28 days of storage at −70° C.): almost no reduction | RE (%) vs nominal ([1]; DilQC (10-fold dilution) nominal 1500 ng/ml, 28 days at −20° C.): −32.5% | RE (%) vs nominal ([1]; DilQC (10-fold dilution) nominal 1500 ng/ml, 28 days at −70° C.): −6.2% | AST-2660 concentration, Mean value [1, 3]: 1.11 ng/mL | AST-2660 concentration, single replicates [1, 3]: 1.01 ng/mL and 1.03 ng/mL and 1.14 ng/mL and 1.25 ng/mL | RE (%) vs nominal [1, 3]: −26.2% | AST-2660 concentration, Mean value [1, 4]: 1.53 ng/mL | AST-2660 concentration, single replicates [1, 4]: 1.52 ng/mL and 1.53 ng/mL and 1.59 ng/mL and 1.49 ng/mL | RE (%) vs nominal [1, 4]: 2.2% | AST-2660 concentration, Mean value [1, 5]: 146 ng/mL | AST-2660 concentration, single replicates [1, 5]: 147 ng/mL and 141 ng/mL and 149 ng/mL and 145 ng/mL | RE (%) vs nominal [1, 5]: −3.0% | AST-2660 concentration, Mean value [1, 6]: 145 ng/mL | AST-2660 concentration, single replicates [1, 6]: 142 ng/ml (2×) and 150 ng/ml and 145 ng/ml | RE (%) vs nominal [1, 6]: −3.5% | stability of content (in words) [2]: stable
